Data taken from patent US8124655B2, “Use of LR-90 and LR-102 to overcome insulin resistance” (City of Hope, priority 2007, dated 2012).

How the values were obtained:
[1] = tested on: Cybb, the gene encoding for the gp91phox subunit of NADPH; assay: Kidney expression of Cybb (data not shown); assay type: in vivo, rat; settings: ZDF rats
CML-AGE, AGER = assay: Plasma and renal AGE and AGER; assay type: in vivo, rat; settings: ZDF rats
Procedure: All animal studies were carried out in compliance with policies outlined in The Guide for the Care and Handling of Laboratory Animals (NIH Publication No. 85-23) that have been approved by the City of Hope Animal Care Committee. Male ZDF (fa/fa) and male Zucker lean (+/+; ZL) rats were obtained at the age of 5 weeks from Charles River Laboratories (Wilmington, Mass., USA). Animals were maintained with free access to Purina 5008 rat chow (Purina Mills, St Louis, Mo., USA) and tap water. All animals were individually housed in a controlled room with a 12 h dark-light cycle. At the age of 13 weeks, the animals were divided into the following groups: (1) ZL rats (n=6); (2) ZDF rats without treatment (n=6); and (3) ZDF rats treated with LR-90 at 50 mg/l in their drinking water (ZDF90, n=6). The dose of LR-90 was chosen after previous experiments with type 1 diabetic nephropathy. Food, water intake, body weight and blood glucose levels were monitored periodically. Systolic blood pressure was measured by tail-cuff plethysmography (CODA2 Blood Pressure System; Kent Scientific, Torrington, Conn., USA). […] Plasma glucose, lipids and Nε-(carboxymethyl)lysine-AGE Plasma glucose was measured using a glucose analyzer (2300 STAT; YSI, Yellowsprings, Ohio, USA). Total plasma triacylglycerol and cholesterol concentrations were quantified using the Vitros 250 Chemistry System (Johnson & Johnson, Rochester, N.Y., USA). Nε-(Carboxymethyl)lysine (CML)-AGE was liberated from plasma proteins by acid hydrolysis and then measured by ion-pair reversed-phase liquid chromatography/tandem mass spectrometry as described previously. […]
Renal cortical tissues were homogenised in PBS buffer with 1% (vol./vol.) Nonidet P-40, 0.5% (wt/vol.) sodium deoxycholate, 0.1% (wt/vol.) SDS and protease inhibitor mixture (Roche, Indianapolis, Ind., USA). […] Protein concentrations were measured using the Bio-Rad DC Assay kit. […] Immunoreactive proteins were detected by enhanced chemiluminescence (Western Lightning Chemiluminescence Reagent; Perkin-Elmer, Waltham, Mass., USA) using horseradish peroxidase-labelled secondary antibodies. […]

[2] = tested on: TGF-β1, CTGF, fibronectin and collagen IV; assay: Renal TGF-β1, CTGF and ECM proteins by RT-PCR, western blot and immunostaining; assay type: in vivo, rat
From the text: Tissue sections were deparaffinised by sequential exposure to xylene and ethanol, dehydrated and then exposed to H2O2 to eliminate endogenous peroxidase activity. The kidney sections were then blocked with 2% (wt/vol.) BSA and exposed to specific antibodies against AGE, AGER, TGF-β1, CTGF, fibronectin and collagen type IV. Biotinylated anti-rabbit or anti-mouse IgG was then applied as a secondary antibody, followed by horseradish peroxidase conjugated streptavidin. The staining was visualised by reaction with 3,3′-diaminobenzidine tetrahydrochloride and then counterstained with haematoxylin. All the sections were examined by light microscopy (Olympus AX70) and photographed with Retiga 2000R camera.
Renal cortical tissues were homogenised in PBS buffer with 1% (vol./vol.) Nonidet P-40, 0.5% (wt/vol.) sodium deoxycholate, 0.1% (wt/vol.) SDS and protease inhibitor mixture (Roche, Indianapolis, Ind., USA). Homogenates were centrifuged for 15 min at 4° C. and at 12,000 rpm and the supernatant fractions collected and stored at −70° C. Nuclear extracts were prepared as described previously. Protein concentrations were measured using the Bio-Rad DC Assay kit. Total RNA was isolated using the RNA-STAT-60 reagent (Tel-Test, Friendswood, Tex., USA). Western blot assay Protein samples (50 μg) were separated on 10 to 20% gradient Tris-glycine Criterion gels (Bio-Rad) and then transferred to nitrocellulose membranes. The membranes were blocked with 5% (wt/vol.) skimmed milk in PBS before incubation with anti-TGF-β1, anti-CTGF, anti-AGER, anti-phospho-p38 MAPK, anti-phospho-p44/42 MAPK and anti-p65 NF-κB antibodies. Immunoreactive proteins were detected by enhanced chemiluminescence (Western Lightning Chemiluminescence Reagent; Perkin-Elmer, Waltham, Mass., USA) using horseradish peroxidase-labelled secondary antibodies. Equal amounts of protein loading were confirmed by restaining the membranes with antibodies against β-actin, p38 MAPK or p44/42 MAPK for cytosolic extracts or with histone H2B for nuclear extracts. Band intensities were quantified using a densitometer (Quantity One, Bio-Rad). Reverse transcriptase-polymerase chain reaction Total RNA (1 μg) was used for the RT reaction using the GeneAmp RNA PCR kit (Applied Biosystems, Foster City, Calif., USA). Total cDNA was then used in PCR reactions containing gene specific primers [Electronic supplementary material (ESM) Table 1] paired with Quantum 18S rRNA internal standards (Ambion, Austin, Tex., USA). Multiplex PCR reactions were performed in a GeneAmp 9700 (Applied Biosystems). […] The densities of amplified products corresponding to specific genes and 18S rRNA were quantified with Quantity One software (Bio-Rad). Results are expressed as the means of the ratios of Tgfb1, Ctgf or Ager band densities to the 18S rRNA band density.

[3] = tested on: experimental type 1 diabetic nephropathy; settings: previous studies (24); cited from earlier work
[4] = kidneys of ZDF rats, to almost similar levels as in ZL rats

CC(C)(Oc1ccc(NC(=O)Nc2ccc(Cc3ccc(NC(=O)Nc4ccc(OC(C)(C)C(=O)O)cc4)c(Cl)c3)cc2Cl)cc1)C(=O)O [LR-90, methylene bis[4,4′-(2-chlorophenylureidophenoxyisobutyric acid)]]
increased kidney expression of Cybb [1]: attenuated | Ager mRNA and protein in kidney tissues (CML-AGE, AGER; RT-PCR and immunostaining): markedly abrogated | AGE accumulation in kidney tissues (CML-AGE, AGER; immunohistochemistry): markedly abrogated | attenuation of circulating plasma CML-AGE concentration (CML-AGE, AGER; p<0.01, LC/tandem MS): 22% | mRNA expression and protein production of CTGF ([2]; kidneys of ZDF animals): significantly attenuated | mRNA expression and protein production of TGF-β1 ([2]; kidneys of ZDF animals): significantly attenuated | positive immunostaining for collagen IV [2, 4]: markedly reduced | positive immunostaining for fibronectin [2, 4]: markedly reduced | development of experimental type 1 diabetic nephropathy [3]: prevented
